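Five concentrations, 48 hours, 96-well plates. The concentration for full growth arrest is given as TGI.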
Experiments:
Assay in all cases: NCI-60 cell line screen, 48 h
A498 renal = tested on: A498 renal
A549 NSCLC = tested on: A549 NSCLC
ACHN renal = tested on: ACHN renal
CAKI-1 renal = tested on: CAKI-1 renal
CCRF-CEM leukemia = tested on: CCRF-CEM leukemia
COLO 205 colon = tested on: COLO 205 colon
DU-145 prostate = tested on: DU-145 prostate
EKVX NSCLC = tested on: EKVX NSCLC
HCC-2998 colon = tested on: HCC-2998 colon
HCT-116 colon = tested on: HCT-116 colon
HCT-15 colon = tested on: HCT-15 colon
HL-60(TB) leukemia = tested on: HL-60(TB) leukemia
HOP-62 NSCLC = tested on: HOP-62 NSCLC
HS 578T breast = tested on: HS 578T breast
HT29 colon = tested on: HT29 colon
IGROV1 ovarian = tested on: IGROV1 ovarian
K-562 leukemia = tested on: K-562 leukemia
KM12 colon = tested on: KM12 colon
LOX IMVI melanoma = tested on: LOX IMVI melanoma
M14 melanoma = tested on: M14 melanoma
MALME-3M melanoma = tested on: MALME-3M melanoma
MCF7 breast = tested on: MCF7 breast
MDA-MB-231 breast = tested on: MDA-MB-231 breast
MDA-MB-435 = tested on: MDA-MB-435
MDA-N = tested on: MDA-N
MOLT-4 leukemia = tested on: MOLT-4 leukemia
NCI-H226 lung = tested on: NCI-H226 lung
NCI-H23 lung = tested on: NCI-H23 lung
NCI-H460 lung = tested on: NCI-H460 lung
NCI-H522 lung = tested on: NCI-H522 lung
NCI/ADR-RES ovarian = tested on: NCI/ADR-RES ovarian
OVCAR-3 ovarian = tested on: OVCAR-3 ovarian
OVCAR-4 ovarian = tested on: OVCAR-4 ovarian
OVCAR-5 ovarian = tested on: OVCAR-5 ovarian
OVCAR-8 ovarian = tested on: OVCAR-8 ovarian
PC-3 prostate = tested on: PC-3 prostate
RPMI-8226 leukemia = tested on: RPMI-8226 leukemia
RXF 393 renal = tested on: RXF 393 renal
SF-268 CNS = tested on: SF-268 CNS
SF-295 CNS = tested on: SF-295 CNS
SF-539 CNS = tested on: SF-539 CNS
SK-MEL-2 melanoma = tested on: SK-MEL-2 melanoma
SK-MEL-28 melanoma = tested on: SK-MEL-28 melanoma
SK-MEL-5 melanoma = tested on: SK-MEL-5 melanoma
SK-OV-3 ovarian = tested on: SK-OV-3 ovarian
SN12C renal = tested on: SN12C renal
SNB-19 CNS = tested on: SNB-19 CNS
SNB-75 CNS = tested on: SNB-75 CNS
SR leukemia = tested on: SR leukemia
SW-620 colon = tested on: SW-620 colon
T-47D breast = tested on: T-47D breast
TK-10 renal = tested on: TK-10 renal
U251 CNS = tested on: U251 CNS
UACC-62 melanoma = tested on: UACC-62 melanoma
UO-31 renal = tested on: UO-31 renal
786-0 renal = tested on: 786-0 renal
UACC-257 melanoma = tested on: UACC-257 melanoma

O=c1cc(-c2ccccc2)[nH]c2nccn12
TGI (A498 renal): > 10 µM | TGI (A549 NSCLC): > 10 µM | TGI (ACHN renal): > 10 µM | TGI (CAKI-1 renal): > 10 µM | TGI (CCRF-CEM leukemia): > 10 µM | TGI (COLO 205 colon): > 10 µM | TGI (DU-145 prostate): > 10 µM | TGI (EKVX NSCLC): > 10 µM | TGI (HCC-2998 colon): > 10 µM | TGI (HCT-116 colon): > 10 µM | TGI (HCT-15 colon): > 10 µM | TGI (HL-60(TB) leukemia): > 10 µM | TGI (HOP-62 NSCLC): > 10 µM | TGI (HS 578T breast): > 10 µM | TGI (HT29 colon): > 10 µM | TGI (IGROV1 ovarian): > 10 µM | TGI (K-562 leukemia): > 10 µM | TGI (KM12 colon): > 10 µM | TGI (LOX IMVI melanoma): > 10 µM | TGI (M14 melanoma): > 10 µM | TGI (MALME-3M melanoma): > 10 µM | TGI (MCF7 breast): > 10 µM | TGI (MDA-MB-231 breast): > 10 µM | TGI (MDA-MB-435): > 10 µM | TGI (MDA-N): > 10 µM | TGI (MOLT-4 leukemia): > 10 µM | TGI (NCI-H226 lung): > 10 µM | TGI (NCI-H23 lung): > 10 µM | TGI (NCI-H460 lung): > 10 µM | TGI (NCI-H522 lung): > 10 µM | TGI (NCI/ADR-RES ovarian): > 10 µM | TGI (OVCAR-3 ovarian): > 10 µM | TGI (OVCAR-4 ovarian): > 10 µM | TGI (OVCAR-5 ovarian): > 10 µM | TGI (OVCAR-8 ovarian): > 10 µM | TGI (PC-3 prostate): > 10 µM | TGI (RPMI-8226 leukemia): > 10 µM | TGI (RXF 393 renal): > 10 µM | TGI (SF-268 CNS): > 10 µM | TGI (SF-295 CNS): > 10 µM | TGI (SF-539 CNS): > 10 µM | TGI (SK-MEL-2 melanoma): > 10 µM | TGI (SK-MEL-28 melanoma): > 10 µM | TGI (SK-MEL-5 melanoma): > 10 µM | TGI (SK-OV-3 ovarian): > 10 µM | TGI (SN12C renal): > 10 µM | TGI (SNB-19 CNS): > 10 µM | TGI (SNB-75 CNS): > 10 µM | TGI (SR leukemia): > 10 µM | TGI (SW-620 colon): > 10 µM | TGI (T-47D breast): > 10 µM | TGI (TK-10 renal): > 10 µM | TGI (U251 CNS): > 10 µM | TGI (UACC-62 melanoma): > 10 µM | TGI (UO-31 renal): > 10 µM

Cc1cc(S(=O)(=O)/N=C(\[N-]S(=O)(=O)c2cc(Cl)sc2Cl)[n+]2ccc(N(C)C)cc2)c(S)cc1Cl
TGI (786-0 renal): > 100 µM | TGI (A498 renal): 82.5 µM | TGI (ACHN renal): > 100 µM | TGI (CAKI-1 renal): > 100 µM | TGI (CCRF-CEM leukemia): > 100 µM | TGI (DU-145 prostate): > 100 µM | TGI (EKVX NSCLC): > 100 µM | TGI (HCC-2998 colon): > 100 µM | TGI (HCT-116 colon): 55.5 µM | TGI (HCT-15 colon): > 100 µM | TGI (HL-60(TB) leukemia): > 100 µM | TGI (HOP-62 NSCLC): > 100 µM | TGI (HS 578T breast): > 100 µM | TGI (HT29 colon): > 100 µM | TGI (IGROV1 ovarian): > 100 µM | TGI (K-562 leukemia): > 100 µM | TGI (KM12 colon): > 100 µM | TGI (LOX IMVI melanoma): > 100 µM | TGI (M14 melanoma): 95.8 µM | TGI (MCF7 breast): > 100 µM | TGI (MDA-MB-231 breast): > 100 µM | TGI (MDA-MB-435): > 100 µM | TGI (MDA-N): > 100 µM | TGI (MOLT-4 leukemia): > 100 µM | TGI (NCI-H226 lung): > 100 µM | TGI (NCI-H23 lung): > 100 µM | TGI (NCI-H460 lung): > 100 µM | TGI (NCI-H522 lung): 86.1 µM | TGI (NCI/ADR-RES ovarian): > 100 µM | TGI (OVCAR-3 ovarian): > 100 µM | TGI (OVCAR-4 ovarian): > 100 µM | TGI (OVCAR-5 ovarian): > 100 µM | TGI (OVCAR-8 ovarian): > 100 µM | TGI (PC-3 prostate): > 100 µM | TGI (RPMI-8226 leukemia): > 100 µM | TGI (RXF 393 renal): > 100 µM | TGI (SF-268 CNS): > 100 µM | TGI (SF-295 CNS): > 100 µM | TGI (SF-539 CNS): > 100 µM | TGI (SK-MEL-2 melanoma): > 100 µM | TGI (SK-MEL-28 melanoma): > 100 µM | TGI (SK-MEL-5 melanoma): > 100 µM | TGI (SK-OV-3 ovarian): > 100 µM | TGI (SR leukemia): 98.2 µM | TGI (SW-620 colon): > 100 µM | TGI (T-47D breast): > 100 µM | TGI (TK-10 renal): > 100 µM | TGI (U251 CNS): > 100 µM | TGI (UACC-257 melanoma): > 100 µM | TGI (UO-31 renal): 56 µM

— PubChem BioAssay (NCI)
